Literature values, collected in patent publication US20190358212A1, “USES OF EGFR/HER2 INHIBITOR COMBINED WITH PYRIMIDINE-TYPE ANTI-METABOLIC DRUG” (Jiangsu Hengrui Medicine Co., Ltd., priority 2017, published 2019).

Key:
HER2 = HER2 (Homo sapiens, UniProt P04626); conditions: CN102471312A
EGFR = EGFR (Homo sapiens, UniProt P00533); conditions: CN102471312A
[1] = test system: HER2+ metastatic breast cancer; conditions: J Clin Oncol 33, 2015 (suppl; abstr e11596)

Chain of HER2 (P04626 23-1255): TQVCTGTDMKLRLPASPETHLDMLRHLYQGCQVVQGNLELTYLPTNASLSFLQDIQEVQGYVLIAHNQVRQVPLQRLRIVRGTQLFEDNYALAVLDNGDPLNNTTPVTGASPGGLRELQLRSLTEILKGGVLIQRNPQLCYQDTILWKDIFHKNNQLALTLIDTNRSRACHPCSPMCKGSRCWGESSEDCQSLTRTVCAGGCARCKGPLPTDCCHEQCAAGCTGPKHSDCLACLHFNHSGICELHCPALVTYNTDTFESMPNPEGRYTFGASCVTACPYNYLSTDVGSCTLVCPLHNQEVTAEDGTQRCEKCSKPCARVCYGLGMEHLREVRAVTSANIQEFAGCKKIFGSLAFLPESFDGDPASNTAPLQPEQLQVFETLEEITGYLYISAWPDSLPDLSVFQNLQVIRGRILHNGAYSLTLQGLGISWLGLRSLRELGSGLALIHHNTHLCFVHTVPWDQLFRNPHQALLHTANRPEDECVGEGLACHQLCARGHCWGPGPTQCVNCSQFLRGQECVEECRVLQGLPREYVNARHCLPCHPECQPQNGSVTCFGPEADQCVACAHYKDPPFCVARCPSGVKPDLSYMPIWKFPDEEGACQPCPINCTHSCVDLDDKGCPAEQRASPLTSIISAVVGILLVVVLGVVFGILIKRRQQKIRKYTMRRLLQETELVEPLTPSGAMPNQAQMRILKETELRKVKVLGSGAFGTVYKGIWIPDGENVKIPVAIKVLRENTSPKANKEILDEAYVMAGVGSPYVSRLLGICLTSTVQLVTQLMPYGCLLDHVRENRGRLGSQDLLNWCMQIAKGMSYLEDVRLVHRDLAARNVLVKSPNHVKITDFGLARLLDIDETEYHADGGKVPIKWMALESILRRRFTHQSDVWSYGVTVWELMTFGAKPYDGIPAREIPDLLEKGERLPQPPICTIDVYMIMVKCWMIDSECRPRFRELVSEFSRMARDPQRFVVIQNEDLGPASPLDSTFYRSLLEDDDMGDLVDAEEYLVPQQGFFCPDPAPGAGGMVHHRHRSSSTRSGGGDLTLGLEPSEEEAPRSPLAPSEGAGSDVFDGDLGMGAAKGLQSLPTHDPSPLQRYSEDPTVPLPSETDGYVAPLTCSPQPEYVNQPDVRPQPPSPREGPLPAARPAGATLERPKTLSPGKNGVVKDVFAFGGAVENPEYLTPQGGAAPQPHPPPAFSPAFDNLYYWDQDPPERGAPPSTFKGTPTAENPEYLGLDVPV
Chain of EGFR (P00533 25-1210): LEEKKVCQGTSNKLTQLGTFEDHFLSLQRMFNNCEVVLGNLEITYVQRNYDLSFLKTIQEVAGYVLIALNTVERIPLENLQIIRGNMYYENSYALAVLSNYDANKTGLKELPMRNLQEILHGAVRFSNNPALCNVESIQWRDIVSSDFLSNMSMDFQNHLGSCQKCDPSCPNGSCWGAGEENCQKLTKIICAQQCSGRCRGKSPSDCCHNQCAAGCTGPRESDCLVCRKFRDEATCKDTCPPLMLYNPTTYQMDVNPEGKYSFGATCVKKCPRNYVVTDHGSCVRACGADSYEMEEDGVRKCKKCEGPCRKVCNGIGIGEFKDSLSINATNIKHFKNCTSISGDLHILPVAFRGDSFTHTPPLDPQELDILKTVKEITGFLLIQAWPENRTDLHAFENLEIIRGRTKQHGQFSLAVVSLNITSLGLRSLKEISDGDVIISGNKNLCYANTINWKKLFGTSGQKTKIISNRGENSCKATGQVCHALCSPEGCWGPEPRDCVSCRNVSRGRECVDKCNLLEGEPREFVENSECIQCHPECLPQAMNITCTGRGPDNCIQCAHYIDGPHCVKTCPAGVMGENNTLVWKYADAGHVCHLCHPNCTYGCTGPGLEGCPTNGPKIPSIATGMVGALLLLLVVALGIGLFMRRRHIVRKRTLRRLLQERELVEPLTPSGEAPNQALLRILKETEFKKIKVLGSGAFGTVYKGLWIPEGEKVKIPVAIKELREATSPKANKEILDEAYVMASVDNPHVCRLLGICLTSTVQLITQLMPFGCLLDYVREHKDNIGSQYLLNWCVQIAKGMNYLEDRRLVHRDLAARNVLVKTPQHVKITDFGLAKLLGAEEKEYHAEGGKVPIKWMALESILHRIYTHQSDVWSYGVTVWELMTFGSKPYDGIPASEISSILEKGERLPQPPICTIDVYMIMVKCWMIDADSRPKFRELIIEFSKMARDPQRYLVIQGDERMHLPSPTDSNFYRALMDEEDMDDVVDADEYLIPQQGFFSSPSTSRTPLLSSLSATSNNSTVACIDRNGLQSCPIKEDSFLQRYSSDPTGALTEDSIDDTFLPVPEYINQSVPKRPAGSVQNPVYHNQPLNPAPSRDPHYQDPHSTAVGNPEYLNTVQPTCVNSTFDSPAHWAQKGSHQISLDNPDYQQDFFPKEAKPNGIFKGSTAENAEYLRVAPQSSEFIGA

CCOc1cc2ncc(C#N)c(Nc3ccc(OCc4ccccn4)c(Cl)c3)c2cc1NC(=O)/C=C/[C@H]1CCCN1C [Compound A, (E)-N-[4-[[3-chloro-4-(2-pyridylmethoxy)phenyl]amino]-3-cyano-7-ethoxy-6-quinolyl]-3-[(2R)-1-methylpyrrolidin-2-yl]prop-2-enamide]
inhibition effect on HER2 (HER2): potent inhibition effect | inhibition effect on EGFR (EGFR): potent inhibition effect | effect on patients with HER2+ metastatic breast cancer [1]: a certain effect
